Assay results reported in US20250376432A1, “PROCESS FOR PREPARING MODULATORS OF EUKARYOTIC INITIATION FACTOR 2B” (Denali Therapeutics Inc., priority 2022, published 2025).

What was measured:
[1] = Dynamic Vapor Sorption (DVS) analysis / hygroscopicity of salt forms; assay type: physicochemical; conditions: for Hygroscopicity by DVS analysis / Hygroscopicity: DVS at 25° C.; for Hygroscopicity: Table 4
Experimental: DVS analysis was carried out using a Surface Measurement System DVS Intrinsic analyzer (SMS, UK). The instrument balance was calibrated with standard weights. Approximately 15-20 mg of sample was loaded into a pan for analysis. The sample was analyzed at 25° C. in 10% relative humidity (RH) steps from 50% to 95% RH (adsorption cycle), from 95% to 0% RH (desorption cycle), and from 0% to 50% RH (adsorption cycle). The movement from one step to the next occurred either after satisfying the equilibrium criterion of 0.002% weight change (dm/dt) or, if the equilibrium criterion was not met, after six hours. […]

[2] = Solid form stability (physical by XRPD, chemical by GC purity) under stress storage; assay type: physicochemical; conditions: for 25° C./60% RH 2-weeks stability, Purity (%) / 40° C./75% RH 2-weeks stability, Purity (%) / 60° C. 2 weeks stability, Purity (%): GC purity; for 60° C. 2 weeks stability, XRPD: about 20 mg in glass weighing bottles
Experimental: Standard XRPD patterns were collected using a Bruker D8 Advance diffractometer (Bruker, GER). The X-ray source is a copper (Cu) tube that was operated at 40 kV and 40 mA. Powder samples were prepared on zero-background silicon (Si) holders using manual light pressure to keep the sample surfaces flat. Each sample was analyzed from 3 to 45° 2θ with an effective step size of 0.02° 2θ and 0.08 s exposure time.
Shimadzu GC-2104 (Shimadzu, Japan) was utilized for chemical purity characterization.
Several salts were further investigated for hygroscopicity, purity, and solid form stability. To determine solid form stability, glass weighing bottles containing about 20 mg samples were kept under (1) 60° C., (2) 25° C./60% RH, and (3) 40° C./75% RH conditions, respectively. After 1 week and 2 weeks, respectively, XRPD and GC analyses were conducted to investigate the physical and chemical stability of the selected forms under corresponding conditions.

## C1CCC(NC2CCCCC2)CC1.O=C(O)[C@H]1C[C@@H](OC(F)(F)F)C1 [VIa-1a DCHA salt Form A]
[1]
  Hygroscopicity by DVS analysis: non-hygroscopic
[1]; after DVS test
  Form conversion after DVS test: no form conversion was detected

## C1CCC(NC2CCCCC2)CC1.O=C(O)[C@H]1C[C@@H](OC(F)(F)F)C1 [VIa-1a, DCHA salt Form A]
[1]
  Hygroscopicity: non-
[2]
  25° C./60% RH 2-weeks stability, XRPD: No change
  25° C./60% RH 2-weeks stability, Purity (%): 99.7%
  40° C./75% RH 2-weeks stability, XRPD: No change
  40° C./75% RH 2-weeks stability, Purity (%): 99.3%
  60° C. 2 weeks stability, XRPD: Sublimed

## N=C(N)NCCC[C@H](N)C(=O)O.O=C(O)[C@H]1C[C@@H](OC(F)(F)F)C1 [VIa-1a, L-Arginine salt Form A]
[1]
  Hygroscopicity: hygroscopic
[2]
  25° C./60% RH 2-weeks stability, XRPD: No change
  25° C./60% RH 2-weeks stability, Purity (%): 98.8%
  40° C./75% RH 2-weeks stability, XRPD: Deliquesced
  60° C. 2 weeks stability, Purity (%): 99.2%
  60° C. 2 weeks stability, XRPD: additional peak

## N=C(N)NCCC[C@H](N)C(=O)O.O=C(O)[C@H]1C[C@@H](OC(F)(F)F)C1 [VIa-1a, L-arginine salt Form A]
[1]; 25° C.
  DVS weight gain at 80% RH: about 28%
  DVS weight gain at 95% RH: about 74%
[1]
  Hygroscopicity by DVS analysis: high hygroscopicity
  Deliquescence with high humidity: deliquesced with high humidity

## CC(C)(C)N.O=C(O)[C@H]1C[C@@H](OC(F)(F)F)C1 [VIa-1a, TBA salt Form A]
[1]
  Hygroscopicity: non-
[2]
  60° C. 2 weeks stability, XRPD: Sublimed^&

## NC(CO)(CO)CO.O=C(O)[C@H]1C[C@@H](OC(F)(F)F)C1 [VIa-1a, TMA salt Form A]
[1]; 0% RH, 25° C.
  DVS weight gain at 0% RH: about 7%
[1]; 25° C.
  DVS weight gain at 80% RH: about 0.1%
  DVS weight gain at 95% RH: about 47%
[1]
  Hygroscopicity by DVS analysis: non-hygroscopic
  Hygroscopicity: non-
  Deliquescence with high humidity: may deliquesce with high humidity (>90% RH)
[2]
  25° C./60% RH 2-weeks stability, XRPD: No change
  25° C./60% RH 2-weeks stability, Purity (%): 99.4%
  40° C./75% RH 2-weeks stability, XRPD: No change
  40° C./75% RH 2-weeks stability, Purity (%): 99.3%
  60° C. 2 weeks stability, Purity (%): 99.3%
  60° C. 2 weeks stability, XRPD: No change
